# Data published in patent publication US20260021122A1, “CANNABINOIDS AND USES THEREOF IN TREATMENT OF A DISEASE” (TECHNION RESEARCH & DEVELOPMENT FOUNDATION LIMITED, priority 2022, published 2026).
# Legend:
# CD8+ T-cells = experiment: BM-MDSCs CD8+ T-cell co-culture suppression assay; format: cell-based, mice
# Protocol: Generated bone marrow-MDSC (BM-MDSCs) were treated with conditioned media for 24 hours, then sorted into MO-MDSC and PMN-MDSC subsets. Concurrently, CD8+ T-cells were isolated from the spleens of healthy female WT C57BL/6 mice (8-12-weck-old). To isolate CD8+ T-cells, spleens were mechanically disintegrated and filtered through a 70 um filter (Alex Red Ltd., Cat #SO SCS702), the red blood cells were lysed with the red blood lysis buffer (Biological industries, Cat #01-888-1B). Then, CD8+ T-cells were isolated using the EasySep Mouse CD8+T-cell isolation kit (Stemcell Technologies, Cat # 19853) according to the manufacturer's protocol. The isolation purity was measured by staining cells before and after isolation with CD8-PECY7 (BioLegend, Cat #100722, Clone 53-6.7) by flow cytometry.
# Post-sorted MDSC subpopulations were co-cultured in complete RPMI with CD8+ T-cells that are activated with Dynabeads® Mouse T-Activator CD3/CD28 kit (Cat # 11456D; 12.5 μl/1×10^6 cells). After 48 hours, the activation beads were removed and cells were incubated with eBioscience Cell Stimulation Cocktail (Invitrogen, Cat #00-4970-93) for 3 hours and then also with BD GolgiStop™ Protein Transport Inhibitor (BD Biosciences, Cat #51-2092KZ) for the detection of IFN-γ. Intracellular staining of IFN-γ in CD8+ T-cells was achieved by using the BD Cytofix/Cytoperm™ Kit (BD Biosciences, Cat #554714) as stated in the manufacturer's instructions and then staining with IFN-γ-FITC (BioLegend, Cat #505806, Clone XMG1.2) and GranzymeB-FITC (BioLegend, Cat #372206, clone QA16A02).
# CSF-1 = experiment: ELISA of secreted CSF-1 in media of B16F10 cells; format: cell-based, murine; settings: summary statement of the discussion
# Protocol: The media from B16F10 and A375 cell lines, or homogenates from B16F10 tumors, that were treated as indicated for 24 hours, were collected and the protein concentration of MCP-1, MIP-2, C-C Motif Chemokine Ligand 5 (CCL5), and CSF-1 were measured by Quantikine Mouse M-CSF Immunoassay solid-phase ELISA kit (R&D systems, Cat #MMC00) as described in the manufacture's protocol.
# BM-MDSCs = BM-MDSCs treated with conditioned media from treated B16F10 cells: myeloid subpopulation frequencies and F4/80; format: cell-based, mice; settings: for reduction in the F4/80 MFI in Ly6C+ cells compared to DMSO: CM from treated B16F10 cells
# Protocol: Bone-marrow-derived cells (BMDCs) were isolated from the fibula and tibia bones of healthy female WT C57BL/6 mice (8-12-week-old). Red blood cells were removed by using red blood lysis buffer (Biological industries, Cat #01-888-1B). Remaining cells were counted and 1×10^6 cells were seeded in complete RPMI (Sigma, Cat #R8758) containing 10% FBS (Sigma, Cat #F7524), 1% L-Glutamine (Sartorius, Cat #03-020-1B), 1% Penicillin/[…] (Sartorius, Cat #03-031-1B), 1% MEM-Eagle (Sartorius, Cat #01-340-1B), 2.5% HEPES (Sartorius, Cat #03-025-1B) and 1% sodium pyruvate (Sartorius, Cat #03-042-1B) and supplemented with 20 ng/ml of GM-CSF and IL-6 (R&D systems, 415-ML and 406-ML). Cells were incubated at 37° C. and 5% CO2 for 4 days and then treated with conditioned media, which was the media collected from B16F10 cells treated with either DMSO, CBG, or the high-CBG extract 3704 as indicated.
# To differentiate the subpopulation of myeloid cells, BMDCs and myeloid cells from tumors were stained for the extracellular makers Ly6C-BV421 (BioLegend, Clone HK1.4; Cat #128032) or Ly6C-FITC (BioLegend, Cat #128096, Clone HK1.4), Ly6G-APC (BioLegend, Clone 1A8; Cat #127614), Ly6G-BV421 (BioLegend, Cat #127627, clone 1A8), PECy7-F4/80 (BioLegend, Clone BM8 Cat #123113), BV605-CD86 (BioLegend, Clone GL-1, Cat #105037), APC-CD206 (Biolegend, Clone CO68C2, Cat #141708) and BV711-CD45 (BioLegend, Clone 30F11, Cat #103147). Cells from tumors were also stained with PE-CD3+ (BioLegend, Clone 17A2, Cat #100206) to identify the overall T-cell population. To characterize the cells in the subpopulations, cells were fixed and permeabilized with the Intracellular Fixation and Permeabilization Buffer Set (eBioscience Cat #88-8824-00) and stained with FITC-iNOS (Thermo, Clone CXNFT, Cat #53592082) or FITC-Arginase-1 (Thermo, Clone AlexF5, Cat #53-3697-82). These cells were also stained with Fixable viability Dye (FVD)-eflour 780 (Thermo, Cat #65086514) to exclude dead cells.
# [1] = MO-MDSCs exposed to CM of treated B16F10, 48 hours co-incubation
structure (smiles),measurement,setting,value
"CCCCCc1cc(O)c(C/C=C(\C)CCC=C(C)C)c(O)c1 [CBG, cannabigerol]","CD8+ IFN-γ expression, co-culture with MO-MDSCs",CD8+ T-cells; [1],restoration of CD8+ IFN-γ expression in a dose-dependent manner
same,GrzB expression in CD8+ T-cells co-cultured with MO-MDSCs,CD8+ T-cells; [1],trend of restored GrzB expression
same,GrzB expression in CD8+ T-cells co-cultured with PMN-MDSCs,"CD8+ T-cells; PMN-MDSC exposed to CM of treated B16F10, 48 hours co-incubation",trend of reduced GrzB expression
same,"CD8+ IFN-γ expression, co-culture with PMN-MDSCs","CD8+ T-cells; PMN-MDSCs exposed to CM of treated B16F10, 48 hours co-incubation",no significant changes with either of the treatments
same,"efficiency of CSF-1 secretion reduction, comparison between treatments (discussion)",CSF-1,reduce CSF-1 secretion more efficiently than the psychoactive THC
same,overall percentage of monocytes (Ly6C+/Ly6G− cells),BM-MDSCs; BM-MDSCs treated 24 hours with CM from B16F10 treated with CBG 1.5 μg/ml or 3704 2 μg/ml,did not change
same,PMN-MDSC frequencies (Ly6C+/Ly6G+),BM-MDSCs; CM from B16F10 treated with CBG 1.5 μg/ml or 3704 2 μg/ml,not affected by any treatment
same,MO-MDSC (Ly6Chigh/Ly6G−) percentages,"BM-MDSCs; CM from B16F10 treated with CBG 1.5 μg/ml or 3704 2 μg/ml, compared to B16F10 treated with DMSO",significant decrease in MO-MDSC percentages
same,reduction in the F4/80 MFI in Ly6C+ cells compared to DMSO,BM-MDSCs; 24 hours,trend was apparent after 24 hours
same,reduction in the F4/80 MFI in Ly6C+ cells compared to DMSO,BM-MDSCs; 48 hours,statistically significant after 48 hours
